Laboratory results reported in ChEMBL document CHEMBL4033641, “Design, synthesis and anticancer potential of NSC-319745 hydroxamic acid derivatives as DNMT and HDAC inhibitors” (Eur J Med Chem, 2017).

Experiments:
[1] = molecular target: DNA (cytosine-5)-methyltransferase 1 (Homo sapiens) (UniProt P26358); experiment: Inhibition of DNMT1 (unknown origin) at 100 uM using poly(dI-dC).poly(dI-dC) as substrate preincubated for 15 mins followed by substrate/[3H]-SAM addition measured after 120 mins by liquid scintillation counting analysis
Sequence of DNA (cytosine-5)-methyltransferase 1 (Homo sapiens) (P26358 whole entry): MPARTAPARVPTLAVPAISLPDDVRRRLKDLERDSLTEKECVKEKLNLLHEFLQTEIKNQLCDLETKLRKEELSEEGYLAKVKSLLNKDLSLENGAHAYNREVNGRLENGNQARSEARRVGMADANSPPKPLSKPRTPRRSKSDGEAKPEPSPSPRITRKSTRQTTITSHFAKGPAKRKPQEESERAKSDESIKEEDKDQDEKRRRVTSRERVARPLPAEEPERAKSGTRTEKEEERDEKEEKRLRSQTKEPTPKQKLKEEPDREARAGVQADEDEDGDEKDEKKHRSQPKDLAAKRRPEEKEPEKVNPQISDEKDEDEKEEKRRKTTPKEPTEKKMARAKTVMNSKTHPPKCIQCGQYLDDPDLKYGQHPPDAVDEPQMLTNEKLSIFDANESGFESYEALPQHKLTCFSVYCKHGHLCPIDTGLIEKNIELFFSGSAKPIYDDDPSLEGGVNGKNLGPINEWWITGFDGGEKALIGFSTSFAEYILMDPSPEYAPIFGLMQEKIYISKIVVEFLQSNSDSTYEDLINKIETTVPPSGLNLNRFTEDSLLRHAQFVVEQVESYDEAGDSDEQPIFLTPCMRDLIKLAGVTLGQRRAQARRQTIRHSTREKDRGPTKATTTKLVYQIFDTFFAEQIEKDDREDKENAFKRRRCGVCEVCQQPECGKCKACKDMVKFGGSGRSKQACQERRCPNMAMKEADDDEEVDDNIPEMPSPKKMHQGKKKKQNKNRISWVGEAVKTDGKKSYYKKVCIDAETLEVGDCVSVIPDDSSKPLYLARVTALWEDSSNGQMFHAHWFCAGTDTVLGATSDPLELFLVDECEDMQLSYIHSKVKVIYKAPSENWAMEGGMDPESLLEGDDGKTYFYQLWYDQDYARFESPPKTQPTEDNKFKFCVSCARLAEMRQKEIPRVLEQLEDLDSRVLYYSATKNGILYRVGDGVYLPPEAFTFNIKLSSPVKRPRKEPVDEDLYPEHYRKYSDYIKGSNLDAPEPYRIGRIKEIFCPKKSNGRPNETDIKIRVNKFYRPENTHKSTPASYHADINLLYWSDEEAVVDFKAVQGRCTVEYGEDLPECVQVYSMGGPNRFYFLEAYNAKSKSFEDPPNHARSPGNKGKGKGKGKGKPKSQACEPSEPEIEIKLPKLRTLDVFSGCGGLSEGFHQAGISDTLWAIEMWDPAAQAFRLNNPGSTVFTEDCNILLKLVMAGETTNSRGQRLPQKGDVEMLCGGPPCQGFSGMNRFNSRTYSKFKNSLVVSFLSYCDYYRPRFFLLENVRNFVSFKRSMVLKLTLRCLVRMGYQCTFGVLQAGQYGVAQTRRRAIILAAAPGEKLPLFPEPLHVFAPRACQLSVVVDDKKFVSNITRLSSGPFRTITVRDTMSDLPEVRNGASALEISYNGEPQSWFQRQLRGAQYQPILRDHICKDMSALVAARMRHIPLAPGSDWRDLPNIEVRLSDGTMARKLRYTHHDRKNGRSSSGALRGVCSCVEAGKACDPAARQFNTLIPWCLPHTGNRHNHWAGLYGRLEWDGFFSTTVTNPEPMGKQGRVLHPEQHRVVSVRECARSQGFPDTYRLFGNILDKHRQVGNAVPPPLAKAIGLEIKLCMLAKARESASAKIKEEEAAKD

[2] = molecular target: DNMT3A2/3L complex (Homo sapiens) (UniProt Q9Y6K1+Q9UJW3); experiment: Inhibition of DNMT3A/3L (unknown origin) at 100 uM using biotinylated DNA oligonucleotides as substrate preincubated for 15 mins followed by substrate/[3H]-SAM addition measured after 4 hrs by liquid scintillation counting analysis; format: protein-complex assay
Sequence of DNMT3A2/3L complex (Homo sapiens) (Q9UJW3 whole entry, looked up): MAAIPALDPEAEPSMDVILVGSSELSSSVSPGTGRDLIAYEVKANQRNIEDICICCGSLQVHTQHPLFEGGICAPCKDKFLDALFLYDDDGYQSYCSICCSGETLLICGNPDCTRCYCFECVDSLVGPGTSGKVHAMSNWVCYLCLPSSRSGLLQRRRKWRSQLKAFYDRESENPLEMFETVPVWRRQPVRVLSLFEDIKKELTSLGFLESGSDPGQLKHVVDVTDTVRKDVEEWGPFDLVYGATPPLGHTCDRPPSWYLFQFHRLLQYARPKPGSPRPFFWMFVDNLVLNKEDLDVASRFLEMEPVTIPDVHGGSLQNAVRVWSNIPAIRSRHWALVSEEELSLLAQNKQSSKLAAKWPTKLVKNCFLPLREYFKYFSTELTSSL
Sequence of DNMT3A2/3L complex (Homo sapiens) (Q9Y6K1 whole entry, looked up): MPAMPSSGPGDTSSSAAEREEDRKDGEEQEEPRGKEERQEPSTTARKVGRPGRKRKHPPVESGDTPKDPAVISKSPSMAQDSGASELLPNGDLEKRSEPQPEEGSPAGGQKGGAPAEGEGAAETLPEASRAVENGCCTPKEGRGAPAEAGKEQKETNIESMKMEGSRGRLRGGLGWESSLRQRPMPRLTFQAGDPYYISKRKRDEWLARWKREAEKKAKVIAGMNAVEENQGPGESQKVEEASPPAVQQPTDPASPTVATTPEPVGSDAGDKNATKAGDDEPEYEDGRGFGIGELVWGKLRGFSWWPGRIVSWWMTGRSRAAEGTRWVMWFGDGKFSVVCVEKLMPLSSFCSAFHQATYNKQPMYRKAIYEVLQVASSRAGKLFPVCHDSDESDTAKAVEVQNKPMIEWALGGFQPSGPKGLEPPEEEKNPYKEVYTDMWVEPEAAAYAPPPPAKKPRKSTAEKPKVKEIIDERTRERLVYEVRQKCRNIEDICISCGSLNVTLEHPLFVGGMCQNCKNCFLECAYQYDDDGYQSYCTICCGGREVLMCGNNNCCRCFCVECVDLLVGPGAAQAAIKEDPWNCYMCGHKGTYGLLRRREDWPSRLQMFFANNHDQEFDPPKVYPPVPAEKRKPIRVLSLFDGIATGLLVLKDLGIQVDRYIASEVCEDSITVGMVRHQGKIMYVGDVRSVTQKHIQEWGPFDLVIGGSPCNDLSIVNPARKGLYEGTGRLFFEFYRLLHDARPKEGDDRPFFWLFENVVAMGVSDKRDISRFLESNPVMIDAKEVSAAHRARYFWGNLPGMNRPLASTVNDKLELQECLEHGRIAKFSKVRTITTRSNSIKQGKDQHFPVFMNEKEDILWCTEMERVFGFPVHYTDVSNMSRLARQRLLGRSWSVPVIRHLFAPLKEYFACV

[3] = molecular target: DNMT3B-DNMT3L complex (Homo sapiens) (UniProt Q9UBC3+Q9UJW3); experiment: Inhibition of DNMT3B/3L (unknown origin) at 100 uM using biotinylated DNA oligonucleotides as substrate preincubated for 15 mins followed by substrate/[3H]-SAM addition measured after 4 hrs by liquid scintillation counting analysis; format: protein-complex assay
Sequence of DNMT3B-DNMT3L complex (Homo sapiens) (Q9UJW3 whole entry, looked up, other chains not shown): as the sequence (Q9UJW3 whole entry, looked up) above

[4] = molecular target: Histone deacetylase 1 (Homo sapiens, UniProt Q13547); experiment: Inhibition of HDAC1 (unknown origin) preincubated for 15 mins followed by substrate addition measured after 60 mins by fluorescence assay
Sequence of Histone deacetylase 1 (Q13547 whole entry): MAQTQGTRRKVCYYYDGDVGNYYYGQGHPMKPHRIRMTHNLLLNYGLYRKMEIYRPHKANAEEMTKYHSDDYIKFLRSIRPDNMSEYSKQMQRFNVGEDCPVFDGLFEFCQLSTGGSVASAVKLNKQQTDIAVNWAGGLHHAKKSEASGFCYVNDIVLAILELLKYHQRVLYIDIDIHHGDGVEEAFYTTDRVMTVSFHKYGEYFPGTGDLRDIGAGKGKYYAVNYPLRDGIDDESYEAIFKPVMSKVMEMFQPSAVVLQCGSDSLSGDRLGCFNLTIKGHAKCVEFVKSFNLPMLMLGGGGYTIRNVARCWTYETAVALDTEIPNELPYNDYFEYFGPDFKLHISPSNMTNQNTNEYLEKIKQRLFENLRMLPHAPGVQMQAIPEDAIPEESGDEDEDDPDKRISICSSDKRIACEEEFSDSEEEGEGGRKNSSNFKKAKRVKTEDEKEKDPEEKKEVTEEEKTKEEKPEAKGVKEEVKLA

[5] = molecular target: T1, Protein deacetylase HDAC6 (Homo sapiens, UniProt Q9UBN7); experiment: Inhibition of HDAC6 (unknown origin) preincubated for 15 mins followed by substrate addition measured after 60 mins by fluorescence assay
T1 sequence (Q9UBN7 whole entry): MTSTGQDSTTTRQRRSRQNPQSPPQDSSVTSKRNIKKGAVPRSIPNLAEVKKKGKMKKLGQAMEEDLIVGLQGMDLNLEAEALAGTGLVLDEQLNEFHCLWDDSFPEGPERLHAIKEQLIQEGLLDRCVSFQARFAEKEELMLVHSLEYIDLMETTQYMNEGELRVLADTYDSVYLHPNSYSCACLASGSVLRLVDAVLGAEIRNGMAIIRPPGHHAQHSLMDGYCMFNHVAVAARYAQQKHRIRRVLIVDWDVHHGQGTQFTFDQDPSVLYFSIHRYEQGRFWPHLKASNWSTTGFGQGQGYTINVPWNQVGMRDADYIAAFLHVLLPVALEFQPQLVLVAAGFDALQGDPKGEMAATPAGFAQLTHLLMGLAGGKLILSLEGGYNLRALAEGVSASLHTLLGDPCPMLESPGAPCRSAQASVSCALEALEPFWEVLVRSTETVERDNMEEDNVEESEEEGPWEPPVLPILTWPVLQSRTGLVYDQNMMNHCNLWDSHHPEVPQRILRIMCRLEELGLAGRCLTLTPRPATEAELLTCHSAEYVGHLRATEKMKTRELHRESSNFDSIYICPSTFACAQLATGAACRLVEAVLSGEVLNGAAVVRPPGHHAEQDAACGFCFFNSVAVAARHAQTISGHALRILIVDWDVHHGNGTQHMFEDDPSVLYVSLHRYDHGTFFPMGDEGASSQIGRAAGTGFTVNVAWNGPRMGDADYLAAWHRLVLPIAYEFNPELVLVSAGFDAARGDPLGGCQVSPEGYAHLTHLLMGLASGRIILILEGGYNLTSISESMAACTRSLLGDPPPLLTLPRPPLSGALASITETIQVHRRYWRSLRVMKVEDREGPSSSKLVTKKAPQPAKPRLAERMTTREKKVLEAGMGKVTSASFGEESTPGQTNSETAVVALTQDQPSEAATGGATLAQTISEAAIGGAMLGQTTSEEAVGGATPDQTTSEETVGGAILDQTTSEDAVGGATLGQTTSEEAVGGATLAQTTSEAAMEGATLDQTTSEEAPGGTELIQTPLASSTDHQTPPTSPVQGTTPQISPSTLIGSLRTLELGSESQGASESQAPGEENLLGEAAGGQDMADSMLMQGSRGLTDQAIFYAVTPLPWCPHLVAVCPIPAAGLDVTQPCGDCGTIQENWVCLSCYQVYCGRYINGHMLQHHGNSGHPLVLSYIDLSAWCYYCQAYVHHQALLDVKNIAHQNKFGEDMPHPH

[6] = system: K562; experiment: Antiproliferative activity against human K562 cells after 72 hrs by MTT assay; format: functional, cell-based; settings: K562, 72 h
[7] = system: U-937; experiment: Antiproliferative activity against human U937 cells after 72 hrs by MTT assay; format: functional, cell-based; settings: U-937, 72 h
[8] = system: Salmonella typhimurium; experiment: Genotoxicity in Salmonella typhimurium TA97 at 50 times IC50 by Ames test; format: toxicity; settings: salmonella enterica subsp. enterica serovar typhimurium
[9] = system: Salmonella typhimurium; experiment: Genotoxicity in Salmonella typhimurium TA98 at 50 times IC50 by Ames test; format: toxicity; settings: salmonella enterica subsp. enterica serovar typhimurium
[10] = system: Salmonella typhimurium; experiment: Genotoxicity in Salmonella typhimurium TA102 at 50 times IC50 by Ames test; format: toxicity; settings: salmonella enterica subsp. enterica serovar typhimurium
[11] = system: Salmonella typhimurium; experiment: Genotoxicity in Salmonella typhimurium TA1535 at 50 times IC50 by Ames test; format: toxicity; settings: salmonella enterica subsp. enterica serovar typhimurium
[12] = system: U-937; experiment: Growth inhibition of human U937 cells at 50 uM after 72 hrs by MTT assay; format: functional; settings: U-937, 72 h, read-out: GI
[13] = system: K562; experiment: Growth inhibition of human K562 cells at 50 uM after 72 hrs by MTT assay; format: functional; settings: K562, 72 h, read-out: GI
[14] = system: A549; experiment: Antiproliferative activity against human A549 cells after 72 hrs by MTT assay; format: functional, cell-based; settings: A549, 72 h
[15] = system: HCT-116; experiment: Antiproliferative activity against human HCT116 cells after 72 hrs by MTT assay; format: functional, cell-based; settings: HCT-116, 72 h
[16] = system: HepG2; experiment: Antiproliferative activity against human HepG2 cells after 72 hrs by MTT assay; format: functional, cell-based; settings: HepG2, 72 h
[17] = system: HeLa; experiment: Antiproliferative activity against human HeLa cells after 72 hrs by MTT assay; format: functional, cell-based
[18] = system: U-937; experiment: Induction of apoptosis in human U937 cells assessed as viable cells at 0.5 uM after 48 hrs by Annexin V-FITC/PI staining based flow cytometry (reference value: 99.6%); format: functional; settings: U-937, 48 h, read-out: Activity
[19] = system: U-937; experiment: Induction of apoptosis in human U937 cells assessed as early apoptotic cells at 0.5 uM after 48 hrs by Annexin V-FITC/PI staining based flow cytometry (reference value: 0.140%); format: functional
[20] = system: U-937; experiment: Induction of apoptosis in human U937 cells assessed as late apoptotic cells at 0.5 uM after 48 hrs by Annexin V-FITC/PI staining based flow cytometry (reference value: 0.279%); format: functional
[21] = system: U-937; experiment: Induction of apoptosis in human U937 cells assessed as necrotic cells at 0.5 uM after 48 hrs by Annexin V-FITC/PI staining based flow cytometry (reference value: 0%); format: functional
[22] = system: U-937; experiment: Induction of apoptosis in human U937 cells assessed as viable cells at 1 uM after 48 hrs by Annexin V-FITC/PI staining based flow cytometry (reference value: 99.6%); format: functional; settings: U-937, 48 h, read-out: Activity
[23] = system: U-937; experiment: Induction of apoptosis in human U937 cells assessed as early apoptotic cells at 1 uM after 48 hrs by Annexin V-FITC/PI staining based flow cytometry (reference value: 0.140%); format: functional
[24] = system: U-937; experiment: Induction of apoptosis in human U937 cells assessed as late apoptotic cells at 1 uM after 48 hrs by Annexin V-FITC/PI staining based flow cytometry (reference value: 0.279%); format: functional
[25] = system: U-937; experiment: Induction of apoptosis in human U937 cells assessed as necrotic cells at 1 uM after 48 hrs by Annexin V-FITC/PI staining based flow cytometry (reference value: 0%); format: functional
[26] = system: U-937; experiment: Induction of apoptosis in human U937 cells assessed as viable cells at 2.5 uM after 48 hrs by Annexin V-FITC/PI staining based flow cytometry (reference value: 99.6%); format: functional; settings: U-937, 48 h, read-out: Activity
[27] = system: U-937; experiment: Induction of apoptosis in human U937 cells assessed as early apoptotic cells at 2.5 uM after 48 hrs by Annexin V-FITC/PI staining based flow cytometry (reference value: 0.140%); format: functional
[28] = system: U-937; experiment: Induction of apoptosis in human U937 cells assessed as late apoptotic cells at 2.5 uM after 48 hrs by Annexin V-FITC/PI staining based flow cytometry (reference value: 0.279%); format: functional
[29] = system: U-937; experiment: Induction of apoptosis in human U937 cells assessed as necrotic cells at 2.5 uM after 48 hrs by Annexin V-FITC/PI staining based flow cytometry (reference value: 0%); format: functional

inhibition [1] [%]	inhibition [2] [%]	inhibition [3] [%]	IC50 [4] [µM]	IC50 [5] [µM]	IC50 [6] [µM]	IC50 [7] [µM]	Compound	Activity [8]	Activity [9]	Activity [10]	Activity [11]	also measured
23.8 to 24	4.64 to 5	8.26	0.0723	0.0414	6.23	3.95	COc1ccc(Cl)cc1C(=O)NCCc1ccc(CCC(=O)NO)cc1	Non-Toxic	Non-Toxic	Toxic	Non-Toxic	
36 to 36.4	1.97	3.09	0.0346	0.0399	3.65	1.07	COc1ccc(Cl)cc1C(=O)NCCc1cccc(/C=C/C(=O)NO)c1	Non-Toxic	Non-Toxic	Non-Toxic	Non-Toxic	
27.9	11.2	15.8	0.0081	0.0107	5.18	10.7	COc1cc(C(=O)NCCc2ccc(/C=C/C(=O)NO)cc2)ccc1O					
34 to 34.1	42	6.11					COc1ccc(Cl)cc1C(=O)NCCc1ccc(CCC(=O)O)cc1					inhibition of growth at 50 µM [12]: 15%; inhibition of growth at 50 µM [13]: 20%
39.8 to 40	3.98	10.6	0.0192	0.012	2.75	0.19	COc1ccc(Cl)cc1C(=O)NCCc1ccc(/C=C/C(=O)NO)cc1	Non-Toxic	Non-Toxic	Non-Toxic	Non-Toxic	IC50 [14]: 12.5 µM; IC50 [15]: 5.39 µM; IC50 [16]: 5.43 µM; IC50 [17]: 10.6 µM; viability at 0.5 µM [18]: 84%; Activity [19]: 6.9%; Activity [20]: 9.11%; Activity [21]: 0.02%; viability at 1 µM [22]: 52.8%; Activity [23]: 10.1%; Activity [24]: 36.4%; Activity [25]: 0.942%; viability at 2.5 µM [26]: 0.365%; Activity [27]: 41.8%; Activity [28]: 57.8%; Activity [29]: 0.02%

The next lines start with the compound.

Compound	inhibition [1] [%]	inhibition [2] [%]	inhibition [3] [%]	IC50 [4] [µM]	IC50 [5] [µM]	IC50 [6] [µM]	IC50 [7] [µM]	Activity [8]	Activity [9]	Activity [10]	Activity [11]	also measured
O=C(/C=C/c1ccc(CCNC(=O)c2ccc3c(c2)OCCO3)cc1)NO	47.9 to 48	-0.26	28 to 28.1	0.0113	0.0119	1.78	2.97	Non-Toxic	Non-Toxic	Non-Toxic	Non-Toxic	
O=C(/C=C/c1ccc(CCNC(=O)c2c[nH]c3ncccc23)cc1)NO	28.1	21	7.23	0.0143	0.00835	17.9	17.9					
O=C(/C=C/c1ccc(CCNC(=O)c2ccc3ncccc3c2)cc1)NO	22.9	19.1	50 to 50.1	0.004	0.00528	3.16	1.26	Non-Toxic	Toxic	Non-Toxic	Non-Toxic	
Cc1cc(Nc2ccc(NC(=O)c3ccc(Nc4ccnc5ccccc45)cc3)cc2)nc(N)n1						1.16	1.56					
O=C(/C=C/c1ccc(CCNC(=O)c2ccc3c(c2)OCO3)cc1)NO	18.4	-1.03	9.89	0.00718	0.0071	1.12	0.52	Non-Toxic	Non-Toxic	Non-Toxic	Toxic	
O=C(/C=C/c1ccc(CCNC(=O)c2cncc(F)c2)cc1)NO	44 to 44.2	0.9	1.9	0.0257	0.0359	7.06	4.59	Non-Toxic	Non-Toxic	Non-Toxic	Non-Toxic	
O=C(/C=C/c1ccc(CCNC(=O)c2ccc3[nH]cnc3c2)cc1)NO	47 to 47.4	41 to 41.2	30.8	0.0078	0.00468	31.7						inhibition of growth at 50 µM [12]: 45%
